Earlier results as cited in patent publication US20070098786A1, “ENTERIC VALPROIC ACID” (Banner Pharmacaps, Inc., priority 2005, published 2007).

Compound: CCCC(CCC)C(=O)O [Divalproex sodium]
- solubility in water: soluble in water
